Data set [1] concerns rats. In words: Staircase test. Format: in vivo. Particulars: 20 mg/kg; 1 hour after administration; counted for 3 minutes. The method, then:
The apparatus and the method used are described by THIEBOT et al [Psychol-pharmacologia (Berlin), 1973, Vol. 31, p. 77]. The experiment was carried out on groups of 15 inexperienced rats and the animals were put individually in the enclosure 1 hour after administration of the compound studied. The number of straightenings up and the number of steps claimed were counted for 3 minutes.

The subject of data set [2] is mice. In words: Plate test in mice (electric shocks). Format: in vivo. Particulars: for anxiety reducing activity (plate test): conclusion in words, mice (Example 1 also rats). The procedure:
(§1) The apparatus (Apelab) and the method used are described by BOISSER et al [European J. Pharmacol., 1968, Vol. 4, p. 145]. The plates were linked to a stimulator (U. Sachs, Roucaire) which enabled electric shocks of 120 volts to be delivered during 0.5 seconds. The tests were carried out on groups of 10 mice or rats half an hour after oral administration of the compound studied and each animal has put individually on the apparatus. After 15 seconds of free exploration, it was submitted to an electric shock each time it passed from one plate to another, a minimum of 3 seconds being observed between two shocks. The number of shocks delivered was counted over 1 minute and the results obtained were compared to those observed in the control animals in a test by Dunnett.

Data set [3] relates to rats. In words: Plate test in rats (electric shocks). Type of data set: in vivo. Particulars: oral, 20 mg/kg, half an hour after administration, vs control. The procedure:
as §1

The subject of data set [4] is mice. In words: Acute toxicity (lethal dose LD0). Type of data set: in vivo. Particulars: oral. The method, then:
The lethal dose LD0 of the compound of Example 1 was evaluated after administration orally in mice. The maximum dose not causing any mortality in 8 days was called the LD0.

Data set [5] addresses benzodiazepine receptors. In words: Affinity for benzodiazepine receptors (displacement of 3H diazepam, rat brain cortex homogenate). Format: binding. Particulars: rat brain cortices; 3H diazepam 10^-9 M, 30 minutes at 0° C., pH 7.4; read-out: Cl 50 (concentration inhibiting by 50% the specific bonding of 3H diazepam). The procedure:
The cortices removed from the brains of male rats weighing an average of 150 g were homogenized to one twentieth part (weight/volume) in 0.32M sucrose. After centrifuging the homogenate at 1000 g for 10 minutes at 0° C., the supernatant layer was centrifuged at 30,000 g for 20 minutes at +4° C. The residue was suspended in 20 volumes of Tris HCl 50 mM buffer with a pH of 7.4 and centrifuged at 30,000 g for 20 minutes at +4° C. The new residue obtained was suspended in 50 ml of Krebs Tris HCl buffer, pH 7.4.
2 ml of this suspension in the presence of ^3 H diazepam at a concentration of 10^-9 M was incubated for 30 minutes at 0° C., alone, and with increasing concentrations of the product under test, or to determine the non-specific fixation, with non-radio-active diazepam at a concentration of 10^-6 M. The incubated suspensions were filtered on Whatman GF/C and the filters were washed twice with 5 ml of Krebs Tris HCl buffer, pH 7.4, at 0° C. The radioactivity of the filters was measured by liquid scintillation. The activity of the product was expressed by CI 50: concentration inhibiting by 50% the specific bonding of ^3 H diazepam, determined graphically.
(In general: In a radioligand displacement assay an active substance lowers the binding of a labelled ligand.)

Structures can show the parent of a compound that is named as a salt. A value given as a limit tells only on which side of the number the result lay.

Turning to `O=c1c2n[nH]c3ccc(Cl)cc3c-2nn1-c1ccccc1` [Example 1, 8-chloro-2,5-dihydro-2-phenyl-3H-pyrazolo[4,3-c]cinnolin-3-one], the “decrease in number of straightenings up” value in data set [1] was 46%. In addition, the “increase in number of shocks delivered” value in data set [2] (mice, oral, 20 mg/kg, half an hour after administration, vs control) amounted to 63%; in data set [3], 41%. In addition, the “LD0 (maximum dose not causing any mortality in 8 days)” value in data set [4] is over 400.

For `O=c1c2n[nH]c3ccccc3c-2nn1-c1ccc(Cl)cc1` [Example 2, 2-(4-chlorophenyl)-2,5-dihydro-3H-pyrazolo[4,3-c]cinnolin-3-one], in data set [5], the IC50 was found to be 3.7 nM.

Turning to `O=c1c2n[nH]c3ccccc3c-2nn1-c1ccccc1` [Example 3, 2,5-dihydro-2-phenyl-3H-pyrazolo[4,3-c]cinnolin-3-one], the IC50 in data set [5] amounted to 0.9 nM. Also, in data set [2], the “anxiety reducing activity (plate test)” value is on record as “good anxiety reducing activity”. The “increase in number of shocks” value in data set [2] (mice, oral, 50 mg/kg, half an hour after administration, vs control) is reported as 50%. The “LD0 (maximum dose not causing any mortality in 8 days)” value in data set [4] is listed as over 200.

For `COc1ccc(-n2nc3c4ccccc4[nH]nc-3c2=O)cc1` [Example 4, 2,5-dihydro-2-(4-methoxyphenyl)-3H-pyrazolo[4,3-c]cinnolin-3-one], the IC50 in data set [5] was 2.5 nM. In addition, the “LD0 (maximum dose not causing any mortality in 8 days)” value in data set [4] is over 400.

For the compound `O=c1c2n[nH]c3ccccc3c-2nn1-c1ccc(OCc2ccccc2)cc1` [Example 5, 2,5-dihydro-2-(4-benzyloxyphenyl)-3H-pyrazolo[4,3-c]cinnolin-3-one], the IC50 in data set [5] stood at 18 nM. For the same compound, the “LD0 (maximum dose not causing any mortality in 8 days)” value in data set [4] is reported as over 400.

Regarding `O=c1c2n[nH]c3ccccc3c-2nn1-c1cccc(C(F)(F)F)c1` [Example 6, 2,5-dihydro-2-(3-trifluoromethylphenyl)-3H-pyrazolo[4,3-c]cinnolin-3-one], the “LD0 (maximum dose not causing any mortality in 8 days)” value in data set [4] is on record as over 400.

For the compound `Cc1ccccc1-n1nc2c3ccccc3[nH]nc-2c1=O` [Example 7, 2,5-dihydro-2-(2-methylphenyl)-3H-pyrazolo[4,3-c]cinnolin-3-one], in data set [4], the “LD0 (maximum dose not causing any mortality in 8 days)” value amounted to 200.

Consider `Cl.O=c1c2n[nH]c3ccccc3c-2nn1-c1ccccn1` [Example 8, 2,5-dihydro-(2-pyridin-2-yl)-3H-pyrazolo[4,3-c]cinnolin-3-one hydrochloride], for which the IC50 in data set [5] worked out at 3.1 nM. In addition, in data set [2], the “anxiety reducing activity (plate test)” value is “good anxiety reducing activity”. Besides, the “increase in number of shocks” value in data set [2] (mice, oral, 100 mg/kg, half an hour after administration, vs control) was found to be 50%. Besides, the “LD0 (maximum dose not causing any mortality in 8 days)” value in data set [4] is reported as over 400.

For `O=c1c2n[nH]c3ccccc3c-2nn1-c1nccs1` [Example 9, 2,5-dihydro-(2-thiazol-2-yl)-3H-pyrazolo[4,3-c]cinnolin-3-one hydrochloride], the IC50 in data set [5] is 3.1 nM.

As for `O=c1c2n[nH]c3ccccc3c-2nn1C1=NCCS1` [Example 10, 2,5-dihydro-(2-dihydrothiazol-2-yl)-3H-pyrazolo[4,3-c]cinnolin-3-one hydrochloride], the “LD0 (maximum dose not causing any mortality in 8 days)” value in data set [4] is over 400.
